Patent publication US20250090699A1, “FAP TARGETING CYCLIC PEPTIDES AND CONJUGATES THEREOF” (Novartis AG, priority 2023, published 2025)
Where a name gives a salt, the structure may show the parent alone. Starred links: 1 amine or outer side, 2 acyl side, 3 side chain; linkers in the order of their positions; H or OH if unused. Non-standard residues stand in square brackets, D forms with d. Residues, ends and D or L forms follow the SMILES beside them. Groups on a side chain read outwards from the residue. *: point of attachment. F(4OEtNHDOTA-Ga) = gallium complex of (S)-2,2',2''-(10-(2-((2-(4-(2-amino-2-carboxyethyl)phenoxy)ethyl)amino)-2-oxoethyl)-1,4,7,10-tetraazacyclododecane-1,4,7-triyl)triacetic acid (Phe with 4-O-ethylamino-DOTA-Ga), O=C([O-])CN1CCN(CC(=O)[O-])CCN(CC(=O)NCCOc2ccc(C[C@H](N[*:1])C(=O)[*:2])cc2)CCN(CC(=O)[O-])CC1.[Ga+3]; K(COpipzaa) = N6-(4-(carboxymethyl)piperazine-1-carbonyl)-L-lysine, O=C(NCCCC[C@H](N[*:1])C(=O)[*:2])N1CCN(CC(=O)[*:3])CC1; Trp(7-Cl) = N[C@@H](Cc1c[nH]c2c(Cl)cccc12)C(=O)O; NOTA = O=C(O)CN1CCN(CC(=O)O)CCN(CC(=O)*)CC1; Phe(4-CH2NH2) = NCc1ccc(C[C@H](N)C(=O)O)cc1; Piperazinyl(4-CH2COOH) = O=C(O)CN1CCN(*)CC1; Nicotinoyl(6-F) = O=C(c1ccc(F)nc1)*; NMeF = CN[C@@H](Cc1ccccc1)C(=O)O; αMeD = C[C@](N)(CC(=O)O)C(=O)O; Aoc(2) = CCCCCC[C@H](N)C(=O)O; d(αMeP) = C[C@]1(C(=O)O)CCCN1; Ahp(2) = CCCCC[C@H](N)C(=O)O; Cba = N[C@@H](CC1CCC1)C(=O)O; NMeK = CN[C@@H](CCCCN)C(=O)O; AEEA = NCCOCCOCC(=O)O; CO = O=C([*:1])[*:2]

Columns and labels:
mouse FAP [1] = target: T1, mouse FAP (Mus musculus, UniProt P97321); test: Surface plasmon resonance (SPR) for peptide affinity, mouse FAP; format: binding
T1 construct: biotinylated His, Avi tag, mouse FAP (26-761, FAP-M82Q5); His; Avi tag (biotinylated); purchased AcroBiosystems FAP-M82Q5
T1 sequence (P97321 26-761): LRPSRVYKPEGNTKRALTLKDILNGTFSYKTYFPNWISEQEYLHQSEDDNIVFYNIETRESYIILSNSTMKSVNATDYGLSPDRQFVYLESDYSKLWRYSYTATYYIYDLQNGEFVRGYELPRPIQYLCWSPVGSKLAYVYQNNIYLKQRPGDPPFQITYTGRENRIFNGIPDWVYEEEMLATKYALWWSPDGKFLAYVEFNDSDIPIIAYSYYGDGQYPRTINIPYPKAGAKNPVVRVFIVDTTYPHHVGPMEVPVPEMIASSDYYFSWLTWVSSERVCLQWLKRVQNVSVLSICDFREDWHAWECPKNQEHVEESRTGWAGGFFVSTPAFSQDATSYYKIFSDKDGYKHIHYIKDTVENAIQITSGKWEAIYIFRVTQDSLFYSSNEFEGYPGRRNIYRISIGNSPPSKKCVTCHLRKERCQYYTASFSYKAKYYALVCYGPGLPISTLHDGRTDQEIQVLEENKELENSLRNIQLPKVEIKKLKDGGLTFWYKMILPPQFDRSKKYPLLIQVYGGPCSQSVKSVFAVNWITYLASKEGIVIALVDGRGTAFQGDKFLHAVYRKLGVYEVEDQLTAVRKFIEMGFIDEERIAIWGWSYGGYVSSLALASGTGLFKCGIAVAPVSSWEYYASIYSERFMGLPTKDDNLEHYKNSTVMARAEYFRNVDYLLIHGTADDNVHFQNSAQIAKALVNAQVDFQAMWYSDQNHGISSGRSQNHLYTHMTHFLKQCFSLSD
How it was run: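 KD values come from a 1:1 kinetic fit of single-cycle SPR data: 8 peptide concentrations, 25 °C, 30 μL/min, HEPES-buffered saline pH 7.6 with 2% DMSO. Targets were His/Avi-tagged human (26-760) or mouse (26-761) FAP, amine-coupled to CM5 or held on a CAPture chip.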

mouse FAP [2] = target: T1, mouse FAP; test: Enzymatic FAP competition assay (Z-Gly-Pro-AMC fluorescence), mouse FAP; format: biochemical; settings: read-out: m. FAP, Enz., IC50
How it was run: (§1)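 IC50 values come from curve fitting of duplicate % inhibition data on AMC fluorescence (ex 380, em 460 nm) after 4 h at 22-24° C with 50 μM Z-Gly-Pro-AMC. Beforehand, peptides up to 1 μM (14 levels) sat 24 h with 0.01 nM human (26-760) or mouse (26-761) tagged FAP in phosphate buffer pH 7.5, NaCl, Tween20, 1% DMSO.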

human FAP = target: T2, human FAP (Homo sapiens, UniProt Q12884); test: Enzymatic FAP competition assay (Z-Gly-Pro-AMC fluorescence), human FAP; format: biochemical; settings: read-out: h. FAP, Enz., IC50
T2 construct: the biotinylated His, Avi tag, human FAP (26-760, FAP-H82Q6); His; Avi tag (biotinylated); purchased AcroBiosystems FAP-H82Q6
T2 sequence (Q12884 26-760): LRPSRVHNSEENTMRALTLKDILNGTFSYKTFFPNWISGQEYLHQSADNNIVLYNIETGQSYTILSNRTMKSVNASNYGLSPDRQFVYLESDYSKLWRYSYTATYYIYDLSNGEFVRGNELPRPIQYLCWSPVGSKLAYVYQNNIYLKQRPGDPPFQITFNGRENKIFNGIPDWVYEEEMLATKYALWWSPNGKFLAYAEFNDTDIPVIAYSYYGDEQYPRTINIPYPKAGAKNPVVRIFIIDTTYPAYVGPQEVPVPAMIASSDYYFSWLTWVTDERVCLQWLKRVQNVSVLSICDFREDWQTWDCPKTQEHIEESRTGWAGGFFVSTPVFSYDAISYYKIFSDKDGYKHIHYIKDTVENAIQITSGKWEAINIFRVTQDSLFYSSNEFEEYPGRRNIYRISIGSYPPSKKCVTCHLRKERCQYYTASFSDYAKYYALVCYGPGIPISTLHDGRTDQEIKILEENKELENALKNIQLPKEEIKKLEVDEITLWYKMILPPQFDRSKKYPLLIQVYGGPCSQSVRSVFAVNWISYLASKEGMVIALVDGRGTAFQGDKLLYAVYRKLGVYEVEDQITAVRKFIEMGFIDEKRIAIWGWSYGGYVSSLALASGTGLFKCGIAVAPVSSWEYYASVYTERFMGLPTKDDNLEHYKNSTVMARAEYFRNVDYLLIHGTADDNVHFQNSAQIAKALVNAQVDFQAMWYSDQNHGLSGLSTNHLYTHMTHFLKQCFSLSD
How it was run: as §1

Row | Kd (mouse FAP [1]) | IC50 (mouse FAP [2]) | IC50 (human FAP) | Compound
1 | 0.47 nM | 0.86 nM | 0.209 nM | CCCCC[C@@H]1NC(=O)[C@H](Cc2ccc(O)cc2)NC(=O)[C@H](Cc2ccccc2)N(C)C(=O)CNC(=O)[C@H](CCCCN)NC(=O)[C@H]2CCCN2C(=O)[C@H](CC(=O)O)NC(=O)[C@H](Cc2ccc(O)cc2)NC(=O)CNC(=O)[C@H](Cc2c[nH]c3c(Cl)cccc23)NC1=O [Example A25, Lys-Gly-NMePhe-Tyr-Ahp-W(7Cl)-Gly-Tyr-Asp-D-Pro, TFA salt] (cyclo([Ahp(2)][Trp(7-Cl)]GYD[dP]KG[NMeF]Y))
2 | < 0.024 nM | 0.012 nM | 0.006 nM | CCCCCC[C@@H]1NC(=O)[C@H](Cc2ccc(CNC(=O)COCCOCCNC(=O)CN3CCN(CC(=O)O)CCN(CC(=O)O)CC3)cc2)NC(=O)[C@H](Cc2ccccc2)N(C)C(=O)CNC(=O)CNC(=O)[C@H]2CCCN2C(=O)[C@H](CC(=O)O)NC(=O)[C@H](CCCCNC(=O)N2CCN(CC(=O)O)CC2)NC(=O)CNC(=O)[C@H](Cc2c[nH]c3ccccc23)NC1=O [Example B40, Gly-Gly-NMePhe-F(4amPEG2NHNOTA)-Aoc-Trp-Gly-K(COpipzaa)-Asp-D-Pro] (cyclo(GG[NMeF][Phe(4-CH2NH2)]([AEEA-NOTA])[Aoc(2)]WGK([CO-Piperazinyl(4-CH2COOH)])D[dP]))
3 | 75 nM | 46 nM | 19 nM | CCCCC[C@@H]1NC(=O)[C@H](Cc2ccc(O)cc2)NC(=O)[C@H](Cc2ccccc2)N(C)C(=O)CNC(=O)CNC(=O)[C@H]2CCCN2C(=O)[C@H](CC(N)=O)NC(=O)[C@H](Cc2ccc(O)cc2)NC(=O)CNC(=O)[C@H](Cc2c[nH]c3ccccc23)NC1=O [Example A58, Gly-Gly-NMePhe-Tyr-Ahp-Trp-Gly-Tyr-Asn-D-Pro] (cyclo([Ahp(2)]WGYN[dP]GG[NMeF]Y))
4 | < 0.02 nM | 0.052 nM | 0.046 nM | Gly-Gly-NMePhe-F(4OEtNHDOTA-Ga)-Ahp-Trp-Gly-K(COpipzaa)-Asp-D-Pro (cyclo(GG[NMeF][F(4OEtNHDOTA-Ga)][Ahp(2)]WG[K(COpipzaa)]D[dP]); also: Ga complex of DOTA) [Example C50]
5 | < 0.014 nM | 0.022 nM | 0.006 nM | CCCCCC[C@@H]1NC(=O)[C@H](Cc2ccc(CNC(=O)COCCOCCNC(=O)c3ccc(F)nc3)cc2)NC(=O)[C@H](Cc2ccccc2)N(C)C(=O)CNC(=O)CNC(=O)[C@H]2CCCN2C(=O)[C@H](CC(=O)O)NC(=O)[C@H](CCCCNC(=O)N2CCN(CC(=O)O)CC2)NC(=O)CNC(=O)[C@H](Cc2c[nH]c3ccccc23)NC1=O [Example C55, Gly-Gly-NMePhe-F(4amPEG2NHCOPy3(4F))-Aoc-Trp-Gly-K(COpipzaa)-Asp-D-Pro] (cyclo([Aoc(2)]WGK([CO-Piperazinyl(4-CH2COOH)])D[dP]GG[NMeF][Phe(4-CH2NH2)]([AEEA-Nicotinoyl(6-F)])))
6 | 0.222 nM | 0.71 nM | 0.27 nM | CCCCC[C@@H]1NC(=O)[C@H](Cc2ccc(O)cc2)NC(=O)[C@H](Cc2ccccc2)N(C)C(=O)CNC(=O)[C@H](CC(=O)O)NC(=O)[C@H]2CCCN2C(=O)[C@H](CC(=O)O)NC(=O)[C@H](Cc2ccc(O)cc2)NC(=O)CNC(=O)[C@H](Cc2c[nH]c3ccccc23)NC1=O [Example A18, Asp-Gly-NMePhe-Tyr-Ahp-Trp-Gly-Tyr-Asp-D-Pro] (cyclo([Ahp(2)]WGYD[dP]DG[NMeF]Y))
7 | < 0.076 nM | 0.073 nM | 0.031 nM | CCCCCC[C@@H]1NC(=O)[C@H](Cc2ccc(CNC(=O)COCCOCCNC(=O)CCC(C(=O)O)N3CCN(CC(=O)O)CCN(CC(=O)O)CC3)cc2)NC(=O)[C@H](Cc2ccccc2)N(C)C(=O)CNC(=O)CNC(=O)[C@H]2CCCN2C(=O)[C@H](CC(=O)O)NC(=O)[C@H](CCCCNC(=O)N2CCN(CC(=O)O)CC2)NC(=O)CNC(=O)[C@H](Cc2c[nH]c3ccccc23)NC1=O (stereo partly drawn) [Example B38, Gly-Gly-NMePhe-F(4amPEG2NHNODAGA)-Aoc-Trp-Gly-K(COpipzaa)-Asp-D-Pro]
8 | > 6000 nM | 1000 nM | 237 nM | CCCCC[C@@H]1NC(=O)[C@H](Cc2ccc(O)cc2)NC(=O)[C@H](Cc2ccccc2)N(C)C(=O)CNC(=O)CNC(=O)[C@H]2CCCN2C(=O)[C@](C)(CC(=O)O)NC(=O)[C@H](Cc2ccc(O)cc2)NC(=O)CNC(=O)[C@H](Cc2c[nH]c3ccccc23)NC1=O [Example A72, Gly-Gly-NMePhe-Tyr-Ahp-Trp-Gly-Tyr-aMeD-D-Pro] (cyclo([Ahp(2)]WGY[αMeD][dP]GG[NMeF]Y))
9 | 0.72 nM | 1.3 nM | 0.4 nM | CCCCC[C@@H]1NC(=O)[C@H](Cc2ccc(O)cc2)NC(=O)[C@H](Cc2ccccc2)N(C)C(=O)CNC(=O)[C@H](CCCCN)NC(=O)[C@H]2CCCN2C(=O)[C@H](CC(=O)O)NC(=O)[C@H](Cc2ccc(O)cc2)NC(=O)CNC(=O)[C@H](Cc2c[nH]c3ccccc23)NC1=O [Example A53, Lys-Gly-NMePhe-Tyr-Ahp-Trp-Gly-Tyr-Asp-D-Pro, TFA salt] (cyclo([Ahp(2)]WGYD[dP]KG[NMeF]Y))
10 | 0.05 nM | 0.127 nM | 0.041 nM | CCCCC[C@@H]1NC(=O)[C@H](Cc2ccc(O)cc2)NC(=O)[C@H](CC2CCC2)NC(=O)CNC(=O)CNC(=O)[C@H]2CCCN2C(=O)[C@H](CC(=O)O)NC(=O)[C@H](Cc2ccc(O)cc2)NC(=O)CNC(=O)[C@H](Cc2c[nH]c3ccccc23)NC1=O [Example A60, Gly-Gly-cBuA-Tyr-Ahp-Trp-Gly-Tyr-Asp-D-Pro] (cyclo([Ahp(2)]WGYD[dP]GG[Cba]Y))
11 | 0.104 nM | 0.116 nM | 0.036 nM | CCCCC[C@@H]1NC(=O)[C@H](Cc2ccc(O)cc2)NC(=O)[C@H](Cc2ccccc2)N(C)C(=O)CNC(=O)CNC(=O)[C@@]2(C)CCCN2C(=O)[C@H](CC(=O)O)NC(=O)[C@H](Cc2ccc(O)cc2)NC(=O)CNC(=O)[C@H](Cc2c[nH]c3ccccc23)NC1=O [Example A70, Gly-Gly-NMePhe-Tyr-Ahp-Trp-Gly-Tyr-Asp-D-aMeP] (cyclo([Ahp(2)]WGYD[d(αMeP)]GG[NMeF]Y))

Row | Compound | Kd (mouse FAP [1]) | IC50 (mouse FAP [2]) | IC50 (human FAP)
12 | CCCCC[C@@H]1NC(=O)[C@H](Cc2ccc(O)cc2)NC(=O)[C@H](Cc2ccccc2)N(C)C(=O)CNC(=O)CNC(=O)[C@H]2CCCN2C(=O)[C@H](CC(=O)O)NC(=O)[C@H](CCCCNC(=O)N2CCN(CC(=O)O)CC2)N(C)C(=O)CNC(=O)[C@H](Cc2c[nH]c3ccccc23)NC1=O [Example A3, 2-((9S,12S,15S,18S,24S,27S,32aR)-18-((1H-indol-3-yl)methyl)-9-benzyl-24-(4-(4-(carboxymethyl)piperazine-1-carboxamido)butyl)-12-(4-hydroxybenzyl)-8,23-dimethyl-1,4,7,10,13,16,19,22,25,28-decaoxo-15-pentyldotriacontahydropyrrolo[1,2-a][1,4,7,10,13,16,19,22,25,28]decaazacyclotriacontin-27-yl)acetic acid TFA salt] (cyclo([Ahp(2)]WG[NMeK]([CO-Piperazinyl(4-CH2COOH)])D[dP]GG[NMeF]Y)) | 1.9 nM | 0.95 nM | 0.76 nM
